In patent publication US8906868B2, “Aminoglycoside derivatives” (Rempex Pharmaceuticals, Inc., priority 2010, dated 2014):
≈ marks a conversion by molar mass, not a printed value. Like-named read-outs stand apart in the source and are kept apart here.

What was measured:
Sa 287 aac(6′) + aph(2″) = test: microbe, parasite or virus in culture; format: cell-based, Staphylococcus aureus; conditions: for MIC: Staphylococcus aureus, 18 h, Table 5, read-out: Compound MIC on Bacterial Strains: Staphylococcus aureus Sa 287 aac(6′) + aph(2″)
Protocol: (§1) To compare microbiological activity of the test compounds, minimum inhibitory concentrations (MIC.s) were determined. Antibiotic MICs were obtained using the broth microdilution method according to Clinical and Laboratory Standards Institute (CLSI) approved guidelines (Methods for dilution antimicrobial susceptibility tests for bacteria that grow aerobically; approved standard—7th ed. CLSI document M7-A7. Clinical and Laboratory Standards Institute, Wayne, Pa., incorporated herein by reference in its entirety). Antibiotics were dissolved as specified by CLSI (Performance standards for antimicrobial susceptibility testing; Seventeenth informational supplement. CLSI document M100-S17. Clinical and Laboratory Standards Institute, Wayne, Pa., incorporated herein by reference in its entirety), and were serially diluted 2-fold in cation adjusted Mueller Hinton Broth (CaMHB) at 2× concentration. Bacterial inoculums were prepared in CaMHB by suspension of a colony from an agar plate that was prepared the previous day to obtain a final concentration of 5×10^5CFU/ml. The plates were incubated for 18 hours at 35° C. […] MIC.s were determined by reading the turbidity of plate wells using a SpectraMax Plus384 plate reader (Molecular Devices, Sunnyvale, Calif., USA) at 600 nm and were confirmed by visual inspection.

ECM6003 rmtB = test: microbe, parasite or virus in culture; format: cell-based, Escherichia coli; conditions: for MIC: Escherichia coli, Table 3, read-out: Compound MIC on Bacterial Strains: ECM6003 rmtB
Protocol: as §1
(§2) Activity of the test compounds was determined using QC strains and strains with known aminoglycoside resistance mechanisms (TABLE 3). This specific panel contained strains expressing enzymes that covalently modify N2″, N3 and N3′ positions.
The panel also contained a strain expressing ribosomal RNA methylase, RmtB.

EC1001 acc(6′)-Ib = test: microbe, parasite or virus in culture; format: cell-based, Escherichia coli; conditions: for MIC: Escherichia coli, Table 4, read-out: Compound MIC on Bacterial Strains: Escherichia coli EC1001 acc(6′)-Ib
Protocol: as §1

[1] = test system: ECM6007 aac(6′) + aph(2″); test: microbe, parasite or virus in culture; format: cell-based, Escherichia coli; conditions: for MIC: Escherichia coli, 18 h, Table 4, read-out: Compound MIC on Bacterial Strains: Escherichia coli ECM6007 aac(6′) + aph(2″)
Protocol: as §1

[2] = test system: Klebsiella pneumonia (ATCC 43816); test: MIC, broth microdilution; conditions: Klebsiella pneumoniae, ATCC43816, read-out: Compound MIC on Bacterial Strains: K. pneumonia ATCC 43816
[3] = test system: Staphylococcus aureus (ATCC 29213); test: MIC, broth microdilution; conditions: for MIC: Staphylococcus aureus
[4] = test system: Escherichia coli (ATCC 25922); test: MIC, broth microdilution; conditions: for MIC: Escherichia coli
[5] = test system: Acinetobacter baumannii (ATCC 19606); test: MIC, broth microdilution; conditions: Acinetobacter baumannii, ATCC19606, read-out: Compound MIC on Bacterial Strains: A. baumannii ATCC 19606
EC1002 aph(3′)-IV = test: organism not typed; format: cell-based; conditions: for MIC: read-out: Compound MIC on Bacterial Strains: EC1002 aph(3′)-IV
Protocol: as §1, §2

[6] = test system: Pseudomonas aeruginosa (ATCC 27853); test: MIC, broth microdilution; conditions: for MIC: Pseudomonas aeruginosa
ECM6006 aph(3′)-III = test: microbe, parasite or virus in culture; format: cell-based, Escherichia coli; conditions: for MIC: Escherichia coli, read-out: Compound MIC on Bacterial Strains: ECM6006 aph(3′)-III
Protocol: as §1, §2

ECM6010 ant(2″)-I = test: microbe, parasite or virus in culture; format: cell-based, Escherichia coli; conditions: for MIC: Escherichia coli, read-out: Compound MIC on Bacterial Strains: ECM6010 ant(2″)-I
Protocol: as §1, §2

ECM6009 aac(3)-II = test: microbe, parasite or virus in culture; format: cell-based, Escherichia coli; conditions: for MIC: Escherichia coli, read-out: Compound MIC on Bacterial Strains: ECM6009 aac(3)-II
Protocol: as §1, §2

ECM6011 aph(3′)-I = test: microbe, parasite or virus in culture; format: cell-based, Escherichia coli; conditions: for MIC: Escherichia coli, read-out: Compound MIC on Bacterial Strains: ECM6011 aph(3′)-I
Protocol: as §1, §2

ACM1006 acc(6′)-Ib = test: microbe, parasite or virus in culture; format: cell-based, Acinetobacter baumannii; conditions: for MIC: Acinetobacter baumannii, Table 4, read-out: Compound MIC on Bacterial Strains: Acinetobacter baumannii ACM1006 acc(6′)-Ib
Protocol: as §1

PAM3073 aac(6′)-I = test: microbe, parasite or virus in culture; format: cell-based, Pseudomonas aeruginosa; conditions: for MIC: Pseudomonas aeruginosa, Table 5, read-out: Compound MIC on Bacterial Strains: Pseudomonas aeruginosa PAM3073 aac(6′)-I
Protocol: as §1

PAM3072 aac(6′)-II = test: microbe, parasite or virus in culture; format: cell-based, Pseudomonas aeruginosa; conditions: for MIC: Pseudomonas aeruginosa, Table 5, read-out: Compound MIC on Bacterial Strains: Pseudomonas aeruginosa PAM3072 aac(6′)-II
Protocol: as §1

ACM1005 ATCC 19004 = test: MIC, broth microdilution; format: cell-based, Acinetobacter baumannii; conditions: for MIC: Acinetobacter baumannii, ATCC19004, Table 4, read-out: Compound MIC on Bacterial Strains: Acinetobacter baumannii ACM1005 ATCC 19004
Protocol: as §1

[7] = ATCC29213, read-out: Compound MIC on Bacterial Strains: S. aureus ATCC 29213, QC strain, Table 2
[8] = ATCC29213, read-out: Compound MIC on Bacterial Strains: Staphylococcus aureus SAM1000 ATCC 29213, Table 5
[9] = ATCC25922, read-out: Compound MIC on Bacterial Strains: E. coli ATCC 25922
[10] = ATCC25922, read-out: Compound MIC on Bacterial Strains: ECM6000 ATCC 25922
[11] = ATCC25922, read-out: Compound MIC on Bacterial Strains: Escherichia coli ECM6000 ATCC 25922
[12] = ATCC27853, read-out: Compound MIC on Bacterial Strains: P. aeruginosa ATCC 27853
[13] = ATCC27853, read-out: Compound MIC on Bacterial Strains: Pseudomonas aeruginosa PAM3034 ATCC 27853

Row | Compound | MIC (Sa 287 aac(6′) + aph(2″)) [µg/mL] | MIC (ECM6003 rmtB) [µg/mL] | MIC (EC1001 acc(6′)-Ib) [µg/mL] | MIC [1] [µg/mL] | MIC [2] [µg/mL] | MIC [3, 7] [µg/mL] | MIC [3, 8] [µg/mL] | MIC [4, 9] [µg/mL] | MIC [4, 10] [µg/mL] | MIC [4, 11] [µg/mL] | MIC [5] [µg/mL] | MIC (EC1002 aph(3′)-IV) [µg/mL] | MIC [6, 12] [µg/mL] | MIC [6, 13] [µg/mL] | MIC (ECM6006 aph(3′)-III) [µg/mL] | MIC (ECM6010 ant(2″)-I) [µg/mL] | MIC (ECM6009 aac(3)-II) [µg/mL] | MIC (ECM6011 aph(3′)-I) [µg/mL] | MIC (ACM1006 acc(6′)-Ib) [µg/mL] | MIC (PAM3073 aac(6′)-I) [µg/mL] | other results
1 | CN[C@@H]1C(O)[C@@H](OC2C(O)C(O[C@H]3O[C@H](CN)CCC3N)[C@@H](N)C[C@H]2NC(=O)[C@@H](O)[C@@H](O)CN)OCC1(C)O (stereo partly drawn) [Compound 21, (2S,3R)-4-amino-N-((1R,2S,3S,4R,5S)-5-amino-4-((2R,3R,6S)-3-amino-6-(aminomethyl)tetrahydro-2H-pyran-2-vyloxy)-2-((2R,3R,4R,5R)-3,5-dihydroxy-5-methyl-4-(methylamino)tetrahydro-2H-pyran-2-yloxy)-3-hydroxycyclohexyl)-2,3-dihydroxybutanamide] | 1 to 8 | 1 to 8 (≈ 1.76 to 14.1 µM) | > 8 | < 1 | < 1 | < 1 | < 1 | < 1 | 1 to 8 (≈ 1.76 to 14.1 µM) | 1 to 8 (≈ 1.76 to 14.1 µM) | > 8 | 1 to 8 (≈ 1.76 to 14.1 µM) | < 1 | 1 to 8 (≈ 1.76 to 14.1 µM) | 1 to 8 (≈ 1.76 to 14.1 µM) | < 1 | < 1 | 1 to 8 (≈ 1.76 to 14.1 µM) | 1 to 8 (≈ 1.76 to 14.1 µM) | 1 to 8 (≈ 1.76 to 14.1 µM) | MIC (PAM3072 aac(6′)-II): > 8 µg/mL; MIC (ACM1005 ATCC 19004): 1 to 8 µg/mL (≈ 1.76 to 14.1 µM)
2 | NC[C@H]1O[C@H](O[C@H]2[C@H](O)[C@@H](O[C@H]3O[C@H](CO)[C@@H](O)[C@H](N)[C@H]3O)[C@H](N)C[C@@H]2N)[C@H](N)C[C@@H]1O [Tobramycin, reference compound] | > 8 | > 8 | > 8 | > 8 | < 1 | < 1 | < 1 | < 1 | < 1 | < 1 | 1 to 8 (≈ 2.14 to 17.1 µM) | < 1 | < 1 | < 1 | 1 to 8 (≈ 2.14 to 17.1 µM) | > 8 | > 8 | 1 to 8 (≈ 2.14 to 17.1 µM) | > 8 | > 8 | MIC (PAM3072 aac(6′)-II): > 8 µg/mL; MIC (ACM1005 ATCC 19004): < 1 µg/mL
3 | Gentamicin C1a [reference compound] | – | – | – | – | – | – | – | – | – | – | – | – | – | – | – | – | – | – | – | – | Compound MIC on Bacterial Strains: Staphylococcus aureus Sa 287 aac(6′) + aph(2″) (Sa 287 aac(6′) + aph(2″)): C (key: A: MIC of 1 μg/ml or less; B: MIC of greater than 1 μg/ml to 8 μg/ml; MIC of greater than 8 μg/ml); Compound MIC on Bacterial Strains: ECM6003 rmtB (ECM6003 rmtB): C (key: A: MIC of 1 μg/ml or less; B: MIC of greater than 1 μg/ml to 8 μg/ml; MIC of greater than 8 μg/ml); Compound MIC on Bacterial Strains: Escherichia coli EC1001 acc(6′)-Ib (EC1001 acc(6′)-Ib): C (key: A: MIC of 1 μg/ml or less; B: MIC of greater than 1 μg/ml to 8 μg/ml; MIC of greater than 8 μg/ml); Compound MIC on Bacterial Strains: Escherichia coli ECM6007 aac(6′) + aph(2″) [1]: B (key: A: MIC of 1 μg/ml or less; B: MIC of greater than 1 μg/ml to 8 μg/ml; MIC of greater than 8 μg/ml); Compound MIC on Bacterial Strains: Staphylococcus aureus SAM1000 ATCC 29213 [3]: A (key: A: MIC of 1 μg/ml or less; B: MIC of greater than 1 μg/ml to 8 μg/ml; MIC of greater than 8 μg/ml); Compound MIC on Bacterial Strains: ECM6000 ATCC 25922 [4]: A (key: A: MIC of 1 μg/ml or less; B: MIC of greater than 1 μg/ml to 8 μg/ml; MIC of greater than 8 μg/ml); Compound MIC on Bacterial Strains: Escherichia coli ECM6000 ATCC 25922 [4]: A (key: A: MIC of 1 μg/ml or less; B: MIC of greater than 1 μg/ml to 8 μg/ml; MIC of greater than 8 μg/ml); Compound MIC on Bacterial Strains: EC1002 aph(3′)-IV (EC1002 aph(3′)-IV): A (key: A: MIC of 1 μg/ml or less; B: MIC of greater than 1 μg/ml to 8 μg/ml; MIC of greater than 8 μg/ml); Compound MIC on Bacterial Strains: Pseudomonas aeruginosa PAM3034 ATCC 27853 [6]: A (key: A: MIC of 1 μg/ml or less; B: MIC of greater than 1 μg/ml to 8 μg/ml; MIC of greater than 8 μg/ml); Compound MIC on Bacterial Strains: ECM6006 aph(3′)-III (ECM6006 aph(3′)-III): B (key: A: MIC of 1 μg/ml or less; B: MIC of greater than 1 μg/ml to 8 μg/ml; MIC of greater than 8 μg/ml); Compound MIC on Bacterial Strains: ECM6010 ant(2″)-I (ECM6010 ant(2″)-I): C (key: A: MIC of 1 μg/ml or less; B: MIC of greater than 1 μg/ml to 8 μg/ml; MIC of greater than 8 μg/ml); Compound MIC on Bacterial Strains: ECM6009 aac(3)-II (ECM6009 aac(3)-II): C (key: A: MIC of 1 μg/ml or less; B: MIC of greater than 1 μg/ml to 8 μg/ml; MIC of greater than 8 μg/ml); Compound MIC on Bacterial Strains: ECM6011 aph(3′)-I (ECM6011 aph(3′)-I): B (key: A: MIC of 1 μg/ml or less; B: MIC of greater than 1 μg/ml to 8 μg/ml; MIC of greater than 8 μg/ml); Compound MIC on Bacterial Strains: Acinetobacter baumannii ACM1006 acc(6′)-Ib (ACM1006 acc(6′)-Ib): C (key: A: MIC of 1 μg/ml or less; B: MIC of greater than 1 μg/ml to 8 μg/ml; MIC of greater than 8 μg/ml); Compound MIC on Bacterial Strains: Pseudomonas aeruginosa PAM3073 aac(6′)-I (PAM3073 aac(6′)-I): B (key: A: MIC of 1 μg/ml or less; B: MIC of greater than 1 μg/ml to 8 μg/ml; MIC of greater than 8 μg/ml); Compound MIC on Bacterial Strains: Pseudomonas aeruginosa PAM3072 aac(6′)-II (PAM3072 aac(6′)-II): C (key: A: MIC of 1 μg/ml or less; B: MIC of greater than 1 μg/ml to 8 μg/ml; MIC of greater than 8 μg/ml); Compound MIC on Bacterial Strains: Acinetobacter baumannii ACM1005 ATCC 19004 (ACM1005 ATCC 19004): A (key: A: MIC of 1 μg/ml or less; B: MIC of greater than 1 μg/ml to 8 μg/ml; MIC of greater than 8 μg/ml)
